# Test results reported in PubChem BioAssay (NCI).
# Where “and” joins values, the source holds several entries; their conditions need not be identical. Identical values can stand only once.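 Dose response: 5 concentrations. Exposure: 48 h. Format: 96-well plates. Endpoint: linear interpolation; highest concentration if not reached. GI50 is the concentration that inhibits growth by half. TGI: concentration producing complete growth inhibition.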
# Experiments:
# Test in all cases: NCI tumour cell line growth inhibition, 48 h
# [1] = test system: RXF 393 renal
# [2] = test system: MALME-3M melanoma
# [3] = test system: ACHN renal
# [4] = test system: BT-549 breast
# [5] = test system: CCRF-CEM leukemia
# [6] = test system: KM12 colon
# [7] = test system: HCC-2998 colon
# [8] = test system: TK-10 renal
# [9] = test system: SF-295 CNS
# [10] = test system: NCI/ADR-RES ovarian
SMILES,GI50 [1],TGI [1],GI50 [2],TGI [2],GI50 [3] [µM],TGI [3] [µM],GI50 [4],TGI [4],GI50 [5] [µM],TGI [5],GI50 [6],TGI [6],GI50 [7],TGI [7],GI50 [8] [µM],TGI [8] [µM],GI50 [9],TGI [9],GI50 [10],TGI [10]
CCCCC[C@H]1C/C=C2/C(=O)C=C[C@@H]2C/C=C\CCCC(=O)O[C@@H](CCCCC)C/C=C2/C(=O)C=C[C@@H]2C/C=C\CCCC(=O)O1,0.193 µM,0.526 µM,0.338 µM,0.885 µM,0.373,0.755,0.32 µM,1.02 µM,0.082,1.42 µM,0.382 µM,0.786 µM,0.422 µM,0.816 µM,0.582,1.31,0.506 µM,1.29 µM,0.776 µM,4.57 µM
N#CCCN(CCCN(CCCN(C(=O)Nc1ccccc1)c1ccccc1)C(=O)Nc1ccccc1)C(=O)Nc1ccccc1,> 100 µM,> 100 µM,16 µM,> 8.75 µM and 67.2 µM,,> 8.75,> 100 µM,> 100 µM,4.35,> 8.75 µM and 43.1 µM,18.7 µM,> 100 µM,,> 100 µM,> 100,> 100,> 100 µM,> 100 µM,> 100 µM,> 100 µM
CCC1CN2C(=N1)c1ccccc1-c1cc(Cl)ccc12 (stereo not drawn),3.5 µM,15 µM,2.8 µM,8.15 µM,1.75,4.21,13.2 µM,50.3 µM,2.02,4.79 µM,3.18 µM,12.5 µM,4.17 µM,16.3 µM,4.79,32.8,3.91 µM,31.3 µM,3.7 µM,18.4 µM
CNCCCn1c2c(c3ccc([N+](=O)[O-])cc3c1=O)C(=O)c1cc(OC)cnc1-2,0.0685 µM,0.372 µM,0.175 µM,0.923 µM,0.0361,0.149,0.373 µM,2.56 µM,0.0365,0.625 µM,0.162 µM,0.593 µM,0.204 µM,1.06 µM,0.317,1.5,0.0319 µM,0.193 µM,0.0613 µM,1.08 µM
O=C1c2cccc(NCCN=Cc3cc([N+](=O)[O-])ccc3O)c2C(=O)c2c(NCCN=Cc3cc([N+](=O)[O-])ccc3O)cccc21,7.01 µM,> 100 µM,16.7 µM,83.2 µM,5.61,> 100,36.9 µM,> 100 µM,0.963,9.89 µM,2.8 µM,> 100 µM,5.87 µM,> 100 µM,28.5,> 100,2.08 µM,52.1 µM,> 100 µM,> 100 µM
COc1ccc2c(c1)nnn1c3ncccc3c(N=O)c21,0.308 µM and 1.96 µM,3.14 µM and 10.9 µM,0.769 µM and 1.5 µM,5.77 µM and 5.63 µM,0.374,> 100,5.06 µM and 1.46 µM,16.3 µM and 4.68 µM,0.0409,> 100 µM,1.03 µM and 3.02 µM,6.91 µM and 13.5 µM,7.23 µM and 1.24 µM,15.6 µM and 2.79 µM,5.08,19.2,4.69 µM and 6.95 µM,15.3 µM and 32 µM,1.42 µM and 1.28 µM,10.6 µM and 12.6 µM
O=CN/C=C/c1cccc(O)c1,,85.1 µM,,> 100 µM,,84.6,,58.5 µM,,> 100 µM,,> 100 µM,,> 100 µM,,> 100,,> 63.1 µM,,> 100 µM
CCN(Cc1ccc(F)cc1)c1ccc(CO)c(F)c1,5.47 µM,25.9 µM,18.7 µM,43.9 µM,14.9,> 100,12.5 µM,39.4 µM,21.5,> 74.6 µM,22.9 µM,> 71.8 µM,18.7 µM,54.6 µM,0.625,3.07,5.7 µM,31.7 µM,18 µM,68.7 µM
O=S(=O)(Nc1ccc(Br)c(Cl)c1)c1ccc(-c2cnc(C3CC3)o2)cc1,0.348 µM,3.48 µM,,,0.562,18.2,0.682 µM,17.8 µM,0.411,> 45.9 µM,0.445 µM,14.9 µM,1.61 µM,11.6 µM,2.89,20.6,0.343 µM,3.41 µM,0.43 µM,6.86 µM
COc1cccc2c1C(=O)c1c(O)c3c(c(O)c1C2=O)CC(O)(C(O)CO)CC3OC1CC(N2CCOCC2)C(O)C(C)O1 (stereo not drawn),< 0.001 µM,,0.0132 µM,0.00768 µM and 0.0309 µM,,0.122,,0.206 µM,,0.221 µM,,0.114 µM,,0.00372 µM and 0.0304 µM,0.0233,,0.0243 µM,0.0718 µM and 0.106 µM,,0.31 µM
CCOC(=O)c1cc2c(n1Cc1cccc(OC)c1)-c1oncc1CCC2,1.07 µM,6.89 µM,0.695 µM,> 100 µM,4.42,> 100,1.61 µM,> 100 µM,2.17,> 100 µM,0.58 µM,> 100 µM,5.58 µM,> 96.4 µM,7,> 100,0.616 µM,> 100 µM,0.69 µM,> 21.7 µM
Cc1ccc(-c2nc(C#N)c(S(=O)(=O)n3nc(C)cc3N)o2)cc1,1.87 µM,3.56 µM,1.82 µM,3.54 µM,1.91,3.38,3.85 µM,14.8 µM,2.55,7.83 µM,16.5 µM,33.8 µM,19.5 µM,38 µM,1.97,3.6,15.8 µM,30.5 µM,19 µM,78.5 µM
O=C(O)c1cc2ccc3ccccc3c2oc1=O,,> 100 µM,,> 100 µM,,> 100,,> 100 µM,,> 100 µM,,> 100 µM,,> 100 µM,,> 100,,> 100 µM,,> 100 µM
CC(=O)OC[C@]12CC[C@@H](C(=O)CBr)[C@@H]1[C@H]1CC[C@@H]3[C@@]4(C)CCCNC(C)(C)[C@@H]4CC[C@@]3(C)[C@]1(C)CC2,1.83 µM,3.64 µM,2 µM,4.29 µM,2.02,4.28,2.2 µM,5.52 µM,1.06,3.29 µM,11.8 µM,27.3 µM,11.5 µM,26.1 µM,2.93,11.6,14.6 µM,28.2 µM,4.89 µM,31.2 µM
CC1CC2OC(=O)C(C)C2CC2(C)C(OC3OC(CO)C(O)C(O)C3O)OCCC12 (stereo not drawn),,> 100 µM,,> 100 µM,,> 100,,29.4 µM,,> 100 µM,,> 100 µM,,> 100 µM,,> 100,,> 100 µM,,> 100 µM
COc1ccc(-c2nc(-c3ccccc3)c(-c3ccccc3)[nH]2)cc1OC1CCCC1,8.3 µM,99.5 µM,> 100 µM,> 100 µM,> 100,> 100,> 100 µM,> 100 µM,51.8,> 100 µM,40.9 µM,> 100 µM,> 100 µM,> 100 µM,,,49.8 µM,> 100 µM,> 100 µM,> 100 µM
COc1cc2c3c(n(CCCCN)c(=O)c2cc1OC)-c1cc2c(cc1C3=O)OCO2,1.47 µM,5.72 µM,4.11 µM,11.2 µM,0.38,1.35,1.17 µM,4.84 µM,0.0913,3.75 µM,1.72 µM,6.32 µM,0.659 µM,2.26 µM,3.84,8.48,0.274 µM,2.81 µM,2.34 µM,11.2 µM
COc1cccc(-n2nc(C)c3c(N/N=C(\C)c4ccncc4)ncnc32)c1,8.15 µM,> 25 µM,10.3 µM,> 25 µM,> 25,> 25,> 21.9 µM,> 25 µM,> 25,> 25 µM,> 25 µM,> 25 µM,> 25 µM,> 25 µM,10.2,> 25,> 25 µM,> 25 µM,> 25 µM,> 25 µM
Nc1nc(N)c2nc(CNc3ccc(C(=O)NC(CC(=O)O)C(=O)O)cc3)cnc2n1 (stereo not drawn),> 72.4 µM,> 100 µM,> 100 µM,> 100 µM,2.45,> 100,1.03 µM,> 100 µM,0.422,> 100 µM,0.897 µM,> 100 µM,1.07 µM,> 100 µM,1.71,> 100,0.508 µM,> 34.6 µM,0.638 µM,> 100 µM
Cc1cc(C(=C2C=CC(=Nc3ccccc3)C=C2)c2ccc(Nc3ccccc3)cc2)ccc1N,0.344 µM,1.28 µM,0.25 µM,0.777 µM,0.377,1.31,1.06 µM,2.26 µM,0.352,> 100 µM,0.312 µM,1.05 µM,0.211 µM,0.452 µM,0.359,1.11,0.385 µM,1.35 µM,0.643 µM,2.22 µM
O=C(O)C1OC1(c1cccc(Cl)c1)c1ccccc1Cl (stereo not drawn),,82.1 µM,,49.9 µM,,> 100,,39 µM,,53.3 µM,,> 100 µM,,> 100 µM,,> 100,,76.5 µM,,47.3 µM
CCn1cnc(C[C@H](NC(=O)[C@@H](NC(=O)Nc2cc(C(F)(F)F)cc(C(F)(F)F)c2)C(C)C)C(=O)OC)c1,1.73 µM,3.32 µM,> 10 µM,> 10 µM,5.94,> 10,1.78 µM,3.58 µM,3.38,> 10 µM,1.89 µM,3.9 µM,2.27 µM,5.32 µM,1.88,3.89,> 10 µM,> 10 µM,> 10 µM,> 10 µM
CNC(=O)c1cccc2cc(Oc3ccnc4cc(OCC5(N)CC5)c(OC)cc34)ccc12,4.42 µM,20.4 µM,9.07 µM,26.8 µM,1.96,4.48,5.63 µM,22.1 µM,4.78,29.7 µM,6.17 µM,19.7 µM,11 µM,26.2 µM,12.9,26.6,10.1 µM,25 µM,12.7 µM,31.9 µM
O=C(Nc1cccc(-n2cc(-c3ccncc3)c(-c3ccc(Cl)c(O)c3)n2)c1)c1ccc(N2CCOCC2)c(C(F)(F)F)c1,0.626 µM,2.9 µM,1.25 µM,4.08 µM,1.92,> 50,19.4 µM,> 50 µM,1.82,> 50 µM,1.94 µM,> 50 µM,5.66 µM,> 50 µM,21.3,> 50,1.71 µM,7.55 µM,2.86 µM,> 50 µM
COC1=CC(c2ccc[nH]2)=N/C1=C\c1[nH]c(C)c(C(=O)CCCCC(=O)NC(C)(C)C)c1C,1.66 µM,3.6 µM,1.47 µM,3.12 µM,1.7,3.7,1.41 µM,4.5 µM,0.526,,1.16 µM,2.38 µM,1.88 µM,6.09 µM,1.39,3.41,2.17 µM,6.66 µM,1.61 µM,3.21 µM
O=C(Nc1cccc(-n2cc(-c3ccncc3)c(-c3cc(O)cc(Cl)c3)n2)c1)Nc1ccc(Cl)c(C(F)(F)F)c1,1.42 µM,3.88 µM,2.37 µM,6.25 µM,3.1,15.3,2.25 µM,6.15 µM,2.73,8.93 µM,2.59 µM,9.86 µM,3.93 µM,13.4 µM,,,2.05 µM,4.95 µM,3.4 µM,23.6 µM
